Data published in PubChem BioAssay (NCI).
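These data come from cells grown in 96-well plates and exposed to compound for 48 hours at five concentrations. GI50 marks 50% less growth. The concentration for full growth arrest is given as TGI.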

Assays:
Experiment in all cases: DTP human tumour cell line panel, 48 h
OVCAR-5 ovarian = system: OVCAR-5 ovarian
T-47D breast = system: T-47D breast
TK-10 renal = system: TK-10 renal
EKVX NSCLC = system: EKVX NSCLC
SF-268 CNS = system: SF-268 CNS
RXF 393 renal = system: RXF 393 renal
SK-MEL-5 melanoma = system: SK-MEL-5 melanoma
HOP-62 NSCLC = system: HOP-62 NSCLC
BT-549 breast = system: BT-549 breast
SR leukemia = system: SR leukemia
OVCAR-4 ovarian = system: OVCAR-4 ovarian
U251 CNS = system: U251 CNS
SF-539 CNS = system: SF-539 CNS
SK-MEL-28 melanoma = system: SK-MEL-28 melanoma
SK-MEL-2 melanoma = system: SK-MEL-2 melanoma
MDA-MB-231 breast = system: MDA-MB-231 breast
PC-3 prostate = system: PC-3 prostate
RPMI-8226 leukemia = system: RPMI-8226 leukemia
HT29 colon = system: HT29 colon
OVCAR-8 ovarian = system: OVCAR-8 ovarian
MDA-MB-435 = system: MDA-MB-435
UO-31 renal = system: UO-31 renal
SW-620 colon = system: SW-620 colon
NCI-H23 lung = system: NCI-H23 lung
MALME-3M melanoma = system: MALME-3M melanoma
HOP-92 NSCLC = system: HOP-92 NSCLC
HL-60(TB) leukemia = system: HL-60(TB) leukemia
A498 renal = system: A498 renal
HCC-2998 colon = system: HCC-2998 colon
NCI-H522 lung = system: NCI-H522 lung
SNB-75 CNS = system: SNB-75 CNS
IGROV1 ovarian = system: IGROV1 ovarian
SK-OV-3 ovarian = system: SK-OV-3 ovarian
SNB-19 CNS = system: SNB-19 CNS
K-562 leukemia = system: K-562 leukemia
MOLT-4 leukemia = system: MOLT-4 leukemia
LOX IMVI melanoma = system: LOX IMVI melanoma
ACHN renal = system: ACHN renal
COLO 205 colon = system: COLO 205 colon
UACC-62 melanoma = system: UACC-62 melanoma
SN12C renal = system: SN12C renal
HCT-15 colon = system: HCT-15 colon
UACC-257 melanoma = system: UACC-257 melanoma
CAKI-1 renal = system: CAKI-1 renal
KM12 colon = system: KM12 colon
DU-145 prostate = system: DU-145 prostate
NCI-H226 lung = system: NCI-H226 lung
SF-295 CNS = system: SF-295 CNS
HCT-116 colon = system: HCT-116 colon
M14 melanoma = system: M14 melanoma
A549 NSCLC = system: A549 NSCLC
NCI/ADR-RES ovarian = system: NCI/ADR-RES ovarian
786-0 renal = system: 786-0 renal
NCI-H460 lung = system: NCI-H460 lung
HS 578T breast = system: HS 578T breast
OVCAR-3 ovarian = system: OVCAR-3 ovarian
MCF7 breast = system: MCF7 breast

Compound: COc1cc2nnn3c4ncccc4c(N=O)c3c2cc1OC
- GI50 (OVCAR-5 ovarian): 5.83 µM
- TGI (OVCAR-5 ovarian): > 64.6 µM
- GI50 (T-47D breast): 317 nM
- TGI (T-47D breast): > 29.9 µM
- GI50 (TK-10 renal): 7.98 µM
- TGI (TK-10 renal): > 88.6 µM
- GI50 (EKVX NSCLC): 3.97 µM
- TGI (EKVX NSCLC): > 66.6 µM
- GI50 (SF-268 CNS): 564 nM
- TGI (SF-268 CNS): 19.3 µM
- GI50 (RXF 393 renal): 989 nM
- GI50 (SK-MEL-5 melanoma): 14.6 µM
- TGI (SK-MEL-5 melanoma): 34 µM
- GI50 (HOP-62 NSCLC): 6.71 µM
- TGI (HOP-62 NSCLC): 16.8 µM
- GI50 (BT-549 breast): 9.43 µM
- TGI (BT-549 breast): 64.6 µM
- GI50 (SR leukemia): 31.9 nM
- GI50 (OVCAR-4 ovarian): 3.23 µM
- TGI (OVCAR-4 ovarian): > 100 µM
- GI50 (U251 CNS): 777 nM
- TGI (U251 CNS): > 39.9 µM
- GI50 (SF-539 CNS): 2750 nM
- TGI (SF-539 CNS): 9.15 µM
- GI50 (SK-MEL-28 melanoma): 9.1 µM
- TGI (SK-MEL-28 melanoma): > 100 µM
- GI50 (SK-MEL-2 melanoma): 16.5 µM
- TGI (SK-MEL-2 melanoma): > 68.1 µM
- GI50 (MDA-MB-231 breast): 4.09 µM
- TGI (MDA-MB-231 breast): > 53.9 µM
- GI50 (PC-3 prostate): 5.62 µM
- TGI (PC-3 prostate): > 100 µM
- GI50 (RPMI-8226 leukemia): 173 nM
- TGI (RPMI-8226 leukemia): > 100 µM
- GI50 (HT29 colon): 1340 nM
- TGI (HT29 colon): > 100 µM
- GI50 (OVCAR-8 ovarian): 1770 nM
- TGI (OVCAR-8 ovarian): > 100 µM
- GI50 (MDA-MB-435): 3.55 µM
- TGI (MDA-MB-435): 32.7 µM
- GI50 (UO-31 renal): 890 nM
- TGI (UO-31 renal): > 20.8 µM
- GI50 (SW-620 colon): 312 nM
- TGI (SW-620 colon): > 100 µM
- GI50 (NCI-H23 lung): 6.4 µM
- TGI (NCI-H23 lung): 27.9 µM
- GI50 (MALME-3M melanoma): 3.04 µM
- TGI (MALME-3M melanoma): 17.2 µM
- GI50 (HOP-92 NSCLC): 65.7 nM
- GI50 (HL-60(TB) leukemia): 50.6 nM
- TGI (HL-60(TB) leukemia): > 100 µM
- GI50 (A498 renal): 15.1 µM
- TGI (A498 renal): 35.3 µM
- GI50 (HCC-2998 colon): 2280 nM
- TGI (HCC-2998 colon): 10.8 µM
- GI50 (NCI-H522 lung): 3.04 µM
- TGI (NCI-H522 lung): 28 µM
- GI50 (SNB-75 CNS): 2590 nM
- TGI (SNB-75 CNS): 40.1 µM
- GI50 (IGROV1 ovarian): 896 nM
- TGI (IGROV1 ovarian): > 37 µM
- GI50 (SK-OV-3 ovarian): 6.96 µM
- TGI (SK-OV-3 ovarian): 41.7 µM
- GI50 (SNB-19 CNS): 9.75 µM
- TGI (SNB-19 CNS): > 74 µM
- GI50 (K-562 leukemia): 282 nM
- TGI (K-562 leukemia): > 100 µM
- TGI (MOLT-4 leukemia): > 100 µM
- GI50 (LOX IMVI melanoma): 1160 nM
- TGI (LOX IMVI melanoma): > 100 µM
- GI50 (ACHN renal): 258 nM
- TGI (ACHN renal): 2150 nM
- GI50 (COLO 205 colon): 8.21 µM
- TGI (COLO 205 colon): 31.2 µM
- GI50 (UACC-62 melanoma): 4.87 µM
- TGI (UACC-62 melanoma): 24.5 µM
- GI50 (SN12C renal): 2540 nM
- TGI (SN12C renal): > 100 µM
- GI50 (HCT-15 colon): 2200 nM
- TGI (HCT-15 colon): 21.1 µM
- GI50 (UACC-257 melanoma): 8.56 µM
- TGI (UACC-257 melanoma): > 100 µM
- GI50 (CAKI-1 renal): 131 nM
- TGI (CAKI-1 renal): 1270 nM
- GI50 (KM12 colon): 2460 nM
- TGI (KM12 colon): > 100 µM
- GI50 (DU-145 prostate): 3.02 µM
- TGI (DU-145 prostate): 12.5 µM
- GI50 (NCI-H226 lung): 6.91 µM
- TGI (NCI-H226 lung): 44.4 µM
- GI50 (SF-295 CNS): 4.99 µM
- TGI (SF-295 CNS): 29.4 µM
- GI50 (HCT-116 colon): 118 nM
- TGI (HCT-116 colon): > 100 µM
- GI50 (M14 melanoma): 4.58 µM
- TGI (M14 melanoma): 13 µM
- GI50 (A549 NSCLC): 18.2 µM
- TGI (A549 NSCLC): > 69.2 µM
- GI50 (NCI/ADR-RES ovarian): 910 nM
- TGI (NCI/ADR-RES ovarian): > 33.6 µM
- GI50 (786-0 renal): 391 nM
- TGI (786-0 renal): 2480 nM
- GI50 (NCI-H460 lung): 3.64 µM
- TGI (NCI-H460 lung): 22.8 µM
- GI50 (HS 578T breast): 4.82 µM
- TGI (HS 578T breast): > 100 µM
- GI50 (OVCAR-3 ovarian): 722 nM
- TGI (OVCAR-3 ovarian): > 100 µM
- GI50 (MCF7 breast): 327 nM
- TGI (MCF7 breast): > 74.5 µM
